The source of these data is ChEMBL document CHEMBL6074678, “Selectively Antagonizing the NOD1-Mediated Inflammatory Signaling Pathway Mitigates the Gastric Inflammation Induced by Helicobacter pylori Infection” (J Med Chem, 2024).

Calls of active or inactive are those of the source.

For orientation: half-life means the time needed for the level to fall by half in the phase considered. By IC50 is commonly meant the point on the concentration scale where inhibition reaches its midpoint.

For series [1], the target named is T1, Nucleotide-binding oligomerization domain-containing protein 1 (Homo sapiens) (UniProt Q9Y239).
T1 sequence (whole entry): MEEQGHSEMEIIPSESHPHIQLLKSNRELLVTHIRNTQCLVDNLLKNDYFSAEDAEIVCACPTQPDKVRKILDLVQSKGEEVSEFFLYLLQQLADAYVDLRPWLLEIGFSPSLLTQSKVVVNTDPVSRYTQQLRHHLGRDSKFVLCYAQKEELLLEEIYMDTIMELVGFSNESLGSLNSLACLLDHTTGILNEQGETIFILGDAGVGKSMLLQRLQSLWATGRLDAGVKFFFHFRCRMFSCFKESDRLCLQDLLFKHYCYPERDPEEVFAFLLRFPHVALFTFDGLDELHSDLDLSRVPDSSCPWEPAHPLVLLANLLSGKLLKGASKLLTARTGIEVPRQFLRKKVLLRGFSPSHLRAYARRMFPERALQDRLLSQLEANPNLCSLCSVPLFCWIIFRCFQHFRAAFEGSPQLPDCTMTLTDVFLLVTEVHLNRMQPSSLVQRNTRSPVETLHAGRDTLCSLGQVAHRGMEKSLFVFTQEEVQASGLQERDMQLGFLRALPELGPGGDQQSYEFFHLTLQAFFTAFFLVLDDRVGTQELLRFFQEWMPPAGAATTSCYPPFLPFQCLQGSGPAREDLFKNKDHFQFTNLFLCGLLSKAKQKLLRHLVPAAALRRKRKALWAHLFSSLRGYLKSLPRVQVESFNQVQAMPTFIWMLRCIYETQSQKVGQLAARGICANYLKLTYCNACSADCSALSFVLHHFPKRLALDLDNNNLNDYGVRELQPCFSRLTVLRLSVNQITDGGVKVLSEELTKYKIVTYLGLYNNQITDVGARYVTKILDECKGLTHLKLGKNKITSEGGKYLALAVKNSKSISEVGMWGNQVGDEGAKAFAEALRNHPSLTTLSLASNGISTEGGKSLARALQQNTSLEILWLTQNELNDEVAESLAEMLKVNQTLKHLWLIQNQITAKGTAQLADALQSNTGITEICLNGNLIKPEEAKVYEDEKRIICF
Kind of series: Antagonist activity at NOD1 in human THP-1 cells assessed as decrease in phosphorylated p38 level at 0.1 to 1 uM incubated for 1 hr followed by C12-iE-DAP stimulation for 30 mins by Western blot analysis. The class given is cell-based. The conditions noted are these: filed as antagonist, dose 0.1-1 µM, time 1.5 hrs.

For series [2], the target named is T1, Nucleotide-binding oligomerization domain-containing protein 1 (Homo sapiens). As to the kind of experiment: Antagonist activity at NOD1 in human THP-1 cells assessed as decrease in phosphorylated JNK level at 0.1 to 1 uM incubated for 1 hr followed by C12-iE-DAP stimulation for 30 mins by Western blot analysis. The class given is cell-based. As to conditions: filed as antagonist, dose 0.1-1 µM, time 1.5 hrs. (In general: In western blotting, separated proteins are transferred to a membrane and probed.)

The subject of series [3] is AGS. As to the kind of experiment: Anti-inflammatory activity in human AGS cells assessed as decrease in CXCL8 mRNA level at 1 to 5 uM pretreated for 1 hr followed by infection with Helicobacter pylori for 2 hrs by RT-qPCR analysis. Format: functional, cell-based. As to conditions: dose 1-5 µM, time 3.0 hrs. A general note: Real-time PCR tracks product formation cycle by cycle.

A short description of series [4]: Half life in C57BL/6 mouse at 20 mg/kg, po by LC-MS/MS analysis. Format: ADME, organism-based. As to conditions: in vivo.
Series [5] can be described thus: Anti-inflammatory activity in mouse BMDM cells assessed as decrease in TNF-alpha mRNA level at 0.1 uM pretreated for 1 hr followed by C12-iE-DAP stimulation for 2 hrs by RT-qPCR analysis relative to control. Format: functional. On the set-up: scale not given: the % may be the effect or the level left. As to conditions: time 3 hrs.
The test system of series [6] is Mus musculus. As to the kind of experiment: Anti-inflammatory activity in C57BL/6 mouse assessed as inhibition of serum keratinocyte chemoattractant level pretreated orally with compound for 15 mins followed by C12-iE-DAP administration measured after 2 hrs by ELISA. The conditions noted are these: dose 12.5-50 mg/kg, route po, time 135.0 min. The class given is functional, organism-based. (In an ELISA, binding on a coated surface is turned into a signal by an enzyme label.)

The target of series [7] is T2, Nucleotide-binding oligomerization domain-containing protein 1 (Homo sapiens, UniProt Q9Y239).
T2 sequence (Q9Y239 whole entry): T1 sequence (whole entry)
As to the kind of experiment: Antagonist activity at human NOD1 expressed in HEK293 cells assessed as decrease in NF-kappaB activation. Format: cell-based.

Series [8] has as its target T3, Nucleotide-binding oligomerization domain-containing protein 1 (Mus musculus) (UniProt Q8BHB0).
T3 sequence (whole entry): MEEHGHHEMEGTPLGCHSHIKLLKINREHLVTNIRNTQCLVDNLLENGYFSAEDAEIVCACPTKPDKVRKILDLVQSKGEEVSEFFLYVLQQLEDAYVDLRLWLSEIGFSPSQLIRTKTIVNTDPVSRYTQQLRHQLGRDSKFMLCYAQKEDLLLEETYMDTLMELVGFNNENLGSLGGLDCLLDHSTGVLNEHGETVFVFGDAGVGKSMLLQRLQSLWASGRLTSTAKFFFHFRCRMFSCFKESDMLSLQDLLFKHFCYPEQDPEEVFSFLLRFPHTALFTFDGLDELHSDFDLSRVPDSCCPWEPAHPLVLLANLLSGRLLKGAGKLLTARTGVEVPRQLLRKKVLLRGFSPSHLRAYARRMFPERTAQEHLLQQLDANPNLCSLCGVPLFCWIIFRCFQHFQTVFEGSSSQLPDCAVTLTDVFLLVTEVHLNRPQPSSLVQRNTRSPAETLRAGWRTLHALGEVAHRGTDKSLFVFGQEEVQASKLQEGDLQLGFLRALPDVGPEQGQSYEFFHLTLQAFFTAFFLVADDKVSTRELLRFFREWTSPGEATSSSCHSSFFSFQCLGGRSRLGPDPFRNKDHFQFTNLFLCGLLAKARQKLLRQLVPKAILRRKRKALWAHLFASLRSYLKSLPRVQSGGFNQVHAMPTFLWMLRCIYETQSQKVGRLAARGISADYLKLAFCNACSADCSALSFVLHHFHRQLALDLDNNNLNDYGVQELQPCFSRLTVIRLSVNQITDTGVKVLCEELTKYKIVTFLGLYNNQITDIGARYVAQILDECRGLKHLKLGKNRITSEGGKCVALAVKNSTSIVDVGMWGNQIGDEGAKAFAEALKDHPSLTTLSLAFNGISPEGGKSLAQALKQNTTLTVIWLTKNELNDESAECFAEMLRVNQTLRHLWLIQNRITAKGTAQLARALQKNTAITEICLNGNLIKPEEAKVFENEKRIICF
As to the kind of experiment: Antagonist activity at NOD1 in mouse BMDM cells assessed as decrease in phosphorylated p65 level at 0.1 to 1 uM incubated for 1 hr followed by C12-iE-DAP stimulation for 30 mins by Western blot analysis. The class given is cell-based. The conditions noted are these: filed as antagonist, dose 0.1-1 µM, time 1.5 hrs.

`CS(=O)(=O)c1ccc2nc(Cl)n(-c3ccc(Cl)c(NS(=O)(=O)c4c(F)cccc4F)c3)c(=O)c2c1`: the inhibition entry in series [1], in series [2] and in series [8] was “Active” throughout. The result in series [3] was Active. The half-life in series [4] is 3.15 h. Besides, the Activity in series [5] is about 100%. Also, in series [6], the inhibition result is “Dose-dependent-effect”. Moreover, in series [7], the 50% inhibitory concentration (IC50) is 0.8 nM.
